Source: PubChem BioAssay AID2060601 (Molecular Pharmacology Branch, DTP, NCI, 2025)
Several values for one entry are separate records, joined by “and”; a condition that tells them apart may be missing. Equal entries are not always repeated.

Test system: 874868-142-R-J2-PDC complex spheroids, growth % test/control
Assay: Anticancer human tumor 874868-142-R-J2-PDC patient-derived head and neck squamous carcinoma cell line growth inhibition [CLK]
Settings: for viability, T/C: stronger effect = lower value
Summary of the method: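 Patient-derived tumor cells grown as complex spheroids with HUVEC endothelial cells and mesenchymal stem cells, treated with drug combinations. Concentrations descend in half-log steps from near clinical Cmax, or from 10 microM if Cmax unknown.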

[1] = curve of first compound, second compound 0.0316 µM
[2] = curve of first compound, second compound 0.1 µM
[3] = curve of first compound, second compound 0.316 µM
[4] = curve of first compound, second compound 1 µM
[5] = curve of first compound, second compound 3.16 µM
[6] = curve of first compound, second compound 10 µM
[7] = second compound 0.0316 µM, first compound 0.0316 µM
[8] = second compound 0.0316 µM, first compound 0.1 µM
[9] = second compound 0.0316 µM, first compound 0.316 µM
[10] = second compound 0.0316 µM, first compound 1 µM
[11] = second compound 0.0316 µM, first compound 3.16 µM
[12] = second compound 0.0316 µM, first compound 10 µM
[13] = second compound 0.1 µM, first compound 0.0316 µM
[14] = second compound 0.1 µM, first compound 0.1 µM
[15] = second compound 0.1 µM, first compound 0.316 µM
[16] = second compound 0.1 µM, first compound 1 µM
[17] = second compound 0.1 µM, first compound 3.16 µM
[18] = second compound 0.1 µM, first compound 10 µM
[19] = second compound 0.316 µM, first compound 0.0316 µM
[20] = second compound 0.316 µM, first compound 0.1 µM
[21] = second compound 0.316 µM, first compound 0.316 µM
[22] = second compound 0.316 µM, first compound 1 µM
[23] = second compound 0.316 µM, first compound 3.16 µM
[24] = second compound 0.316 µM, first compound 10 µM
[25] = second compound 1 µM, first compound 0.0316 µM
[26] = second compound 1 µM, first compound 0.1 µM
[27] = second compound 1 µM, first compound 0.316 µM
[28] = second compound 1 µM, first compound 1 µM
[29] = second compound 1 µM, first compound 3.16 µM
[30] = second compound 1 µM, first compound 10 µM
[31] = second compound 3.16 µM, first compound 0.0316 µM
[32] = second compound 3.16 µM, first compound 0.1 µM
[33] = second compound 3.16 µM, first compound 0.316 µM
[34] = second compound 3.16 µM, first compound 1 µM
[35] = second compound 3.16 µM, first compound 3.16 µM
[36] = second compound 3.16 µM, first compound 10 µM
[37] = second compound 10 µM, first compound 0.0316 µM
[38] = second compound 10 µM, first compound 0.1 µM
[39] = second compound 10 µM, first compound 0.316 µM
[40] = second compound 10 µM, first compound 1 µM
[41] = second compound 10 µM, first compound 3.16 µM
[42] = second compound 10 µM, first compound 10 µM
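Also: spheroids exposed to the compounds for 7 days.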
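For viability, T/C in this document: 100% = DMSO vehicle control viability.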

**Q.** For `CCCS(=O)(=O)Nc1ccc(F)c(C(=O)c2c[nH]c3ncc(-c4ccc(Cl)cc4)cc23)c1F` + CNC(=O)c1ccc(Nc2nc(OC3CCCC3)c3c(-c4ccc5nc(C)oc5c4)c[nH]c3n2)c(OC)c1, which IC50 [1] is on record?
**A.** The IC50 was > 10000 nM.

**Q.** What about the IC50 [2] of the same compound?
**A.** Its IC50 is > 10000 nM.

**Q.** What about the IC50 [3] of the same compound?
**A.** The IC50 was > 10000 nM.

**Q.** And the IC50 [4]?
**A.** Its IC50 is < 31.6 nM.

**Q.** And the IC50 [5]?
**A.** The IC50 was < 31.6 nM.

**Q.** And the IC50 [6]?
**A.** The IC50 was < 31.6 nM.

**Q.** What about the viability, T/C [7] of the same compound?
**A.** The viability, T/C was 119%.

**Q.** What about the viability, T/C [8] of the same compound?
**A.** Its viability, T/C is 122%.

**Q.** What about the viability, T/C [9] of the same compound?
**A.** Its viability, T/C is 133%.

**Q.** And the viability, T/C [10]?
**A.** The viability, T/C was 143%.

**Q.** What about the viability, T/C [11] of the same compound?
**A.** The viability, T/C was 139%.

**Q.** And the viability, T/C [12]?
**A.** The viability, T/C was 87.8%.

**Q.** And the viability, T/C [13]?
**A.** Its viability, T/C is 101%.

**Q.** And the viability, T/C [14]?
**A.** The viability, T/C was 104%.

**Q.** And the viability, T/C [15]?
**A.** The viability, T/C was 110%.

**Q.** And the viability, T/C [16]?
**A.** Its viability, T/C is 144%.

**Q.** And the viability, T/C [17]?
**A.** Its viability, T/C is 140%.

**Q.** And the viability, T/C [18]?
**A.** Its viability, T/C is 84.6%.

**Q.** What about the viability, T/C [19] of the same compound?
**A.** The viability, T/C was 62.2%.

**Q.** And the viability, T/C [20]?
**A.** Its viability, T/C is 59.6%.

**Q.** What about the viability, T/C [21] of the same compound?
**A.** Its viability, T/C is 59.6%.

**Q.** And the viability, T/C [22]?
**A.** Its viability, T/C is 61.8%.

**Q.** And the viability, T/C [23]?
**A.** The viability, T/C was 67.9%.

**Q.** What about the viability, T/C [24] of the same compound?
**A.** The viability, T/C was 53.2%.

**Q.** What about the viability, T/C [25] of the same compound?
**A.** The viability, T/C was 40.9%.

**Q.** What about the viability, T/C [26] of the same compound?
**A.** Its viability, T/C is 38.2%.

**Q.** And the viability, T/C [27]?
**A.** Its viability, T/C is 46.8%.

**Q.** And the viability, T/C [28]?
**A.** The viability, T/C was 54.9%.

**Q.** And the viability, T/C [29]?
**A.** Its viability, T/C is 49.3%.

**Q.** And the viability, T/C [30]?
**A.** The viability, T/C was 45.3%.

**Q.** What about the viability, T/C [31] of the same compound?
**A.** Its viability, T/C is 41.2%.

**Q.** And the viability, T/C [32]?
**A.** The viability, T/C was 38%.

**Q.** And the viability, T/C [33]?
**A.** Its viability, T/C is 41.8%.

**Q.** What about the viability, T/C [34] of the same compound?
**A.** Its viability, T/C is 38.8%.

**Q.** What about the viability, T/C [35] of the same compound?
**A.** Its viability, T/C is 53.8%.

**Q.** What about the viability, T/C [36] of the same compound?
**A.** Its viability, T/C is 32%.

**Q.** And the viability, T/C [37]?
**A.** Its viability, T/C is 38.8%.

**Q.** And the viability, T/C [38]?
**A.** Its viability, T/C is 44.1%.

**Q.** And the viability, T/C [39]?
**A.** The viability, T/C was 50.2%.

**Q.** What about the viability, T/C [40] of the same compound?
**A.** The viability, T/C was 37.6%.

**Q.** And the viability, T/C [41]?
**A.** Its viability, T/C is 52.4%.

**Q.** What about the viability, T/C [42] of the same compound?
**A.** Its viability, T/C is 45.2%.

**Q.** `O=c1[nH]cc(F)c(=O)[nH]1` was tested. Which viability, T/C (compound 0.0316 µM) did it give?
**A.** The viability, T/C was 96.6% and 97.4%.

**Q.** What about the viability, T/C (compound 0.1 µM) of the same compound?
**A.** The viability, T/C was 99.9% and 74.5%.

**Q.** What about the viability, T/C (compound 0.316 µM) of the same compound?
**A.** Its viability, T/C is 85.2% and 65.8%.

**Q.** And the viability, T/C (compound 1 µM)?
**A.** Its viability, T/C is 65.2% and 55.6%.

**Q.** And the viability, T/C (compound 3.16 µM)?
**A.** Its viability, T/C is 38.4% and 53.1%.

**Q.** And the viability, T/C (compound 10 µM)?
**A.** The viability, T/C was 37% and 45.6%.

**Q.** What about the IC50 (curve of compound) of the same compound?
**A.** Its IC50 is 1990 nM and 4140 nM.

**Q.** For `COc1cccc2c1C(=O)c1c(O)c3c(c(O)c1C2=O)CC(O)(C(=O)CO)CC3OC1CC(N)C(O)C(C)O1` (stereo unspecified) + CNC(=O)c1ccc(Nc2nc(OC3CCCC3)c3c(-c4ccc5nc(C)oc5c4)c[nH]c3n2)c(OC)c1, which IC50 [1] is on record?
**A.** The IC50 was 73.9 nM.

**Q.** And the IC50 [2]?
**A.** The IC50 was 85.6 nM.

**Q.** And the IC50 [3]?
**A.** Its IC50 is 47.2 nM.

**Q.** And the IC50 [4]?
**A.** Its IC50 is < 31.6 nM.

**Q.** What about the IC50 [5] of the same compound?
**A.** The IC50 was < 31.6 nM.

**Q.** And the IC50 [6]?
**A.** Its IC50 is < 31.6 nM.

**Q.** And the viability, T/C [7]?
**A.** Its viability, T/C is 65.8%.

**Q.** What about the viability, T/C [8] of the same compound?
**A.** Its viability, T/C is 40.8%.

**Q.** What about the viability, T/C [9] of the same compound?
**A.** The viability, T/C was 29.2%.

**Q.** And the viability, T/C [10]?
**A.** Its viability, T/C is 1.04%.

**Q.** What about the viability, T/C [11] of the same compound?
**A.** The viability, T/C was 0.15%.

**Q.** And the viability, T/C [12]?
**A.** Its viability, T/C is 0.15%.

**Q.** And the viability, T/C [13]?
**A.** The viability, T/C was 66.7%.

**Q.** And the viability, T/C [14]?
**A.** Its viability, T/C is 45.7%.

**Q.** And the viability, T/C [15]?
**A.** The viability, T/C was 23.5%.

**Q.** What about the viability, T/C [16] of the same compound?
**A.** The viability, T/C was 0.86%.

**Q.** And the viability, T/C [17]?
**A.** The viability, T/C was 0.16%.

**Q.** And the viability, T/C [18]?
**A.** The viability, T/C was 3.76%.

**Q.** And the viability, T/C [19]?
**A.** The viability, T/C was 55.9%.

**Q.** What about the viability, T/C [20] of the same compound?
**A.** Its viability, T/C is 38.6%.

**Q.** And the viability, T/C [21]?
**A.** The viability, T/C was 16.9%.

**Q.** What about the viability, T/C [22] of the same compound?
**A.** Its viability, T/C is 0.22%.

**Q.** And the viability, T/C [23]?
**A.** The viability, T/C was 0.17%.

**Q.** And the viability, T/C [24]?
**A.** Its viability, T/C is 6.83%.

**Q.** And the viability, T/C [25]?
**A.** Its viability, T/C is 32.1%.

**Q.** And the viability, T/C [26]?
**A.** Its viability, T/C is 28.1%.

**Q.** What about the viability, T/C [27] of the same compound?
**A.** The viability, T/C was 17.6%.

**Q.** And the viability, T/C [28]?
**A.** Its viability, T/C is 0.21%.

**Q.** What about the viability, T/C [29] of the same compound?
**A.** The viability, T/C was 1.61%.

**Q.** What about the viability, T/C [30] of the same compound?
**A.** Its viability, T/C is 0.16%.

**Q.** And the viability, T/C [31]?
**A.** The viability, T/C was 33.2%.

**Q.** And the viability, T/C [32]?
**A.** Its viability, T/C is 27.8%.

**Q.** What about the viability, T/C [33] of the same compound?
**A.** Its viability, T/C is 13.3%.

**Q.** And the viability, T/C [34]?
**A.** The viability, T/C was 0.19%.

**Q.** And the viability, T/C [35]?
**A.** The viability, T/C was 1.44%.

**Q.** What about the viability, T/C [36] of the same compound?
**A.** The viability, T/C was 11.7%.

**Q.** What about the viability, T/C [37] of the same compound?
**A.** Its viability, T/C is 28.5%.

**Q.** And the viability, T/C [38]?
**A.** The viability, T/C was 30.5%.

**Q.** What about the viability, T/C [39] of the same compound?
**A.** The viability, T/C was 15.8%.

**Q.** And the viability, T/C [40]?
**A.** Its viability, T/C is 0.27%.

**Q.** And the viability, T/C [41]?
**A.** The viability, T/C was 3.05%.

**Q.** And the viability, T/C [42]?
**A.** The viability, T/C was 5.77%.
